Data: patent publication US11006631B2, “Substituted pyrimidinyloxy pyridine derivatives as herbicides” (FMC Corporation, priority 2015, dated 2021)

Assays:
Format in all cases: in vivo
corn (Zea mays) = assay: Test A postemergence, corn; settings: 0 to 100 scale
Excerpt: (§1) Seeds of plant species selected from bamyardgrass (Echinochloa crus-galli), kochia (Kochia scoparia), ragweed (common ragweed, Ambrosia elatior), ryegrass, Italian (Italian ryegrass, Lolium multiflorum), foxtail, giant (giant foxtail, Setaria faberii), pigweed (Amaranthus retroflexus), crabgrass, large (large crabgrass, Digitaria sanguinalis), momingglory (Ipomoea spp.), velvetleaf (Abutilon theophrasti), wheat (Triticum aestivum), and corn (Zea mays) were planted into a blend of loam soil and sand and treated preemergence with a directed soil spray using test chemicals formulated in a non-phytotoxic solvent mixture which included a surfactant. At the same time, plants selected from these crop and weed species and also blackgrass (Alopecurus myosuroides), and galium (catchweed bedstraw, Galium aparine) were planted in pots containing the same blend of loam soil and sand and treated with postemergence applications of test chemicals formulated in the same manner. Plants ranged in height from 2 to 10 cm and were in the one- to two-leaf stage for the postemergence treatment. Treated plants and untreated controls were maintained in a greenhouse for approximately 10 days, after which time all treated plants were compared to untreated controls and visually evaluated for injury. Plant response ratings, summarized in Table A, are based on a 0 to 100 scale where 0 is no effect and 100 is complete control. A dash (-) response means no test result.

[1] = tested on: galium (catchweed bedstraw, Galium aparine); assay: Test A postemergence, galium; settings: 0 to 100 scale
Excerpt: as §1

rice (Oryza sativa) = assay: Test B flooded paddy test, rice; settings: Flood, 250 g ai/ha; scale of 0 to 100
Method: (§2) Plant species in the flooded paddy test selected from rice (Oryza sativa), sedge, umbrella (small-flower umbrella sedge, Cyperus difformis), ducksalad (Heteranthera limosa), and barnyardgrass (Echinochloa crus-galli) were grown to the 2-leaf stage for testing. At time of treatment, test pots were flooded to 3 cm above the soil surface, treated by application of test compounds directly to the paddy water, and then maintained at that water depth for the duration of the test. Treated plants and controls were maintained in a greenhouse for 13 to 15 days, after which time all species were compared to controls and visually evaluated. Plant response ratings, summarized in Table B, are based on a scale of 0 to 100 where 0 is no effect and 100 is complete control. A dash (-) response means no test result.

[2] = tested on: ryegrass, Italian (Italian ryegrass, Lolium multiflorum); assay: Test A preemergence, ryegrass, Italian; settings: 0 to 100 scale
Excerpt: as §1

[3] = tested on: ragweed (common ragweed, Ambrosia elatior); assay: Test A preemergence, ragweed; settings: 0 to 100 scale
Excerpt: as §1

[4] = tested on: pigweed (Amaranthus retroflexus); assay: Test A postemergence, pigweed; settings: 0 to 100 scale
Excerpt: as §1

kochia (Kochia scoparia) [5] = assay: Test A preemergence, kochia; settings: 0 to 100 scale
Excerpt: as §1

kochia (Kochia scoparia) [6] = assay: Test A postemergence, kochia; settings: 0 to 100 scale
Excerpt: as §1

[7] = tested on: barnyardgrass (Echinochloa crus-galli); assay: Test A preemergence, barnyardgrass; settings: 0 to 100 scale
Excerpt: as §1

[8] = tested on: wheat (Triticum aestivum); assay: Test A postemergence, wheat; settings: 0 to 100 scale
Excerpt: as §1

[9] = tested on: blackgrass (Alopecurus myosuroides); assay: Test A postemergence, blackgrass; settings: 0 to 100 scale
Excerpt: as §1

[10] = tested on: ducksalad (Heteranthera limosa); assay: Test B flooded paddy test, ducksalad; settings: Flood, 250 g ai/ha; scale of 0 to 100
Method: as §2

[11] = tested on: pigweed (Amaranthus retroflexus); assay: Test A preemergence, pigweed; settings: 0 to 100 scale
Excerpt: as §1

[12] = tested on: sedge, umbrella (small-flower umbrella sedge, Cyperus difformis); assay: Test B flooded paddy test, sedge, umbrella; settings: Flood, 250 g ai/ha; scale of 0 to 100
Method: as §2

[13] = tested on: ragweed (common ragweed, Ambrosia elatior); assay: Test A postemergence, ragweed; settings: 0 to 100 scale
Excerpt: as §1

[14] = tested on: ryegrass, Italian (Italian ryegrass, Lolium multiflorum); assay: Test A postemergence, ryegrass, Italian; settings: 0 to 100 scale
Excerpt: as §1

[15] = tested on: barnyardgrass (Echinochloa crus-galli); assay: Test A postemergence, barnyardgrass; settings: 0 to 100 scale
Excerpt: as §1

[16] = tested on: foxtail, giant (giant foxtail, Setaria faberii); assay: Test A preemergence, foxtail, giant; settings: 0 to 100 scale
Excerpt: as §1

[17] = tested on: foxtail, giant (giant foxtail, Setaria faberii); assay: Test A postemergence, foxtail, giant; settings: 0 to 100 scale
Excerpt: as §1

[18] = tested on: barnyardgrass (Echinochloa crus-galli); assay: Test B flooded paddy test, barnyardgrass; settings: Flood, 250 g ai/ha; scale of 0 to 100
Method: as §2

| SMILES | Plant response rating, Corn (corn (Zea mays); 125 g ai/ha) | Plant response rating, Galium ([1]; 125 g ai/ha) | Plant response rating, Rice (rice (Oryza sativa)) | Plant response rating, Ryegrass, Italian ([2]; 125 g ai/ha) | Plant response rating, Ragweed ([3]; 125 g ai/ha) | Plant response rating, Pigweed ([4]; 125 g ai/ha) | Plant response rating, Kochia (kochia (Kochia scoparia) [5]; 125 g ai/ha) | Plant response rating, Kochia (kochia (Kochia scoparia) [6]; 125 g ai/ha) | Plant response rating, Barnyardgrass ([7]; 125 g ai/ha) | Plant response rating, Wheat ([8]; 125 g ai/ha) | Plant response rating, Blackgrass ([9]; 125 g ai/ha) | Plant response rating, Ducksalad [10] | Plant response rating, Pigweed ([11]; 125 g ai/ha) | Plant response rating, Sedge, Umbrella [12] | Plant response rating, Ragweed ([13]; 125 g ai/ha) | Plant response rating, Ryegrass, Italian ([14]; 125 g ai/ha) | Plant response rating, Barnyardgrass ([15]; 125 g ai/ha) | Plant response rating, Foxtail, Giant ([16]; 125 g ai/ha) | Plant response rating, Foxtail, Giant ([17]; 125 g ai/ha) | Plant response rating, Barnyardgrass [18] | further results |
| --- | --- | --- | --- | --- | --- | --- | --- | --- | --- | --- | --- | --- | --- | --- | --- | --- | --- | --- | --- | --- | --- |
| Cc1cnc(-n2ccc(C(F)(F)F)n2)c(Oc2ncc(Cl)cn2)c1 [Compound 13] | 0 | 0 | 0 | 0 | 0 | 0 | 0 | 0 | 0 | 0 | 0 | 0 | 0 | 0 | 0 | 0 | 0 | 0 | 0 | 0 | Plant response rating, Corn (corn (Zea mays); 31 g ai/ha): 0; Plant response rating, Galium ([1]; 31 g ai/ha): 0; Plant response rating, Ryegrass, Italian ([2]; 31 g ai/ha): 0; Plant response rating, Ragweed ([3]; 31 g ai/ha): 0; Plant response rating, Pigweed ([4]; 31 g ai/ha): 0; Plant response rating, Kochia (kochia (Kochia scoparia) [5]; 31 g ai/ha): 0; Plant response rating, Kochia (kochia (Kochia scoparia) [6]; 31 g ai/ha): 0; Plant response rating, Barnyardgrass ([7]; 31 g ai/ha): 0; Plant response rating, Wheat ([8]; 31 g ai/ha): 0; Plant response rating, Blackgrass ([9]; 31 g ai/ha): 0; Plant response rating, Pigweed ([11]; 31 g ai/ha): 0; Plant response rating, Ragweed ([13]; 31 g ai/ha): 0; Plant response rating, Ryegrass, Italian ([14]; 31 g ai/ha): 0; Plant response rating, Barnyardgrass ([15]; 31 g ai/ha): 0; Plant response rating, Foxtail, Giant ([16]; 31 g ai/ha): 0; Plant response rating, Foxtail, Giant ([17]; 31 g ai/ha): 0 |
| FC(F)(F)c1cc(-c2ncccc2Oc2ncc(Cl)cn2)ccn1 [Compound 14] | 20 | 50 | 0 | 10 | 0 | 100 | 100 | 80 | 40 | 0 | 10 | 40 | 100 | 50 | 10 | 30 | 40 | 90 | 60 | 0 | Plant response rating, Corn (corn (Zea mays); 500 g ai/ha): 40; Plant response rating, Galium ([1]; 500 g ai/ha): 90; Plant response rating, Ryegrass, Italian ([2]; 500 g ai/ha): 20; Plant response rating, Ragweed ([3]; 500 g ai/ha): 20; Plant response rating, Pigweed ([4]; 500 g ai/ha): 100; Plant response rating, Kochia (kochia (Kochia scoparia) [5]; 500 g ai/ha): 100; Plant response rating, Kochia (kochia (Kochia scoparia) [6]; 500 g ai/ha): 100; Plant response rating, Barnyardgrass ([7]; 500 g ai/ha): 100; Plant response rating, Wheat ([8]; 500 g ai/ha): 10; Plant response rating, Blackgrass ([9]; 500 g ai/ha): 90; Plant response rating, Pigweed ([11]; 500 g ai/ha): 100; Plant response rating, Ragweed ([13]; 500 g ai/ha): 30; Plant response rating, Ryegrass, Italian ([14]; 500 g ai/ha): 40; Plant response rating, Barnyardgrass ([15]; 500 g ai/ha): 60; Plant response rating, Foxtail, Giant ([16]; 500 g ai/ha): 100; Plant response rating, Foxtail, Giant ([17]; 500 g ai/ha): 90 |
